Like-named read-outs stand apart in the source and are kept apart here.
Tests used:
healthy volunteers [1] = conditions: for Body temperature / Diastolic blood pressure / Heart rate / NRS feeling sick / Systolic blood pressure: LS Means, IV LPS 1 ng/kg
Source text: (§1) A randomized, placebo-controlled study to evaluate the effects of intravenous sevuparin on LPS reactions (first part), and the interaction between subcutaneous enoxaparin and sevuparin on coagulation responses in healthy volunteers (second part), has been performed.
(§2) Objectives for first part of the clinical study: To evaluate the effect of intarvenous (IV) sevuparin on safety and tolerability and inflammatory responses following an intravenous (IV) LPS challenge.
(§3) In the first part of the study, sevuparin (or matching placebo) is administered by IV infusion (bolus loading dose followed by continuous infusion over 6 hours); In the second part of the study, sevuparin and enoxaparin are given by subcutaneous injection.
(§4) The sevuparin dose was as follows in the first part of the study: • Group 1 (sevuparin low dose): loading bolus dose of 0.3 mg/kg bodyweight, followed by IV infusion at 0.08 mg/kg/h; • Group 2 (sevuparin intermediate dose): loading dose of 1 mg/kg bodyweight, followed by IV infusion at 0.25 mg/kg/h; • Group 3 (sevuparin high dose): loading dose of 3 mg/kg bodyweight, followed by IV infusion at 0.75 mg/kg/h.
(§5) In the first part of the study, 1 ng/kg bodyweight of LPS was administered intravenously.
(§6) In the first part of the study, a total of 48 male and female healthy volunteers were enrolled and randomized over 4 treatment groups (sevuparin low, intermediate or high dose or matching placebo). Each treatment group consisted of 12 healthy volunteers. All subjects underwent an intravenous LPS challenge.
(§7) In the first part of the current study, subjects are administered with intravenous LPS 30 min after the start of the infusion of sevuparin on study Day 1. LPS, purified lipopolysaccharide prepared from Escherichia Coli: 113: H10: K negative (U.S. Standard Reference Endotoxin) is used. This LPS batch was manufactured in the US by List Biological Laboratories. All participants received 1 ng/kg E. coli purified LPS, administered as a 2-minute infusion. To ensure that participants stay adequately hydrated, additionally saline (NaCl 0.9%) or glucose/saline was infused (2.5% glucose/0.45% sodium chloride) starting approximately 2 hours before LPS administration at a rate of 750 ml/h, until 6 h afterwards at a rate of 150 ml/h (Hijma et al., 2020). During infusion of study drug or placebo, infused over 6 hours at an infusion rate of 80 mL/h, the infusion rate of glucose/saline was lowered to 80 mL/h.
Evaluations of systolic and diastolic blood pressure, pulse rate, respiratory rate, and temperature is performed throughout the study. Pulse and blood pressure is taken after 5 minutes in the supine position. Automated oscillometric blood pressures and pulse rate is measured using a Dash 3000,
Subjective assessment of feeling sick is recorded by the subjects during the first part of the study (IV LPS infusion) on a numeric rating scale (NRS) electronically.
(§8) Throughout the Figures and tables related to the clinical study test results, the following abbreviations and its definitions are used: • IV LPS Placebo means subjects who have been challenged with intravenous LPS and thereafter received placebo intravenously as described above. • Sevuparin 0.3/0.08 means (sevuparin low dose): loading bolus dose of 0.3 mg/kg bodyweight, followed by 0.08 mg/kg/h intravenously; • Sevuparin 1/0.25 means (sevuparin intermediate dose): loading dose of 1 mg/kg bodyweight, followed by 0.25 mg/kg/h intravenously; • Sevuparin 3/0.75 means (sevuparin high dose): loading dose of 3 mg/kg bodyweight, followed by 0.75 mg/kg/h intravenously.

[2] = system: inflammatory biomarkers cytokines and C-Reactive Protein (CRP); conditions: for C-Reactive Protein / IL-6 in plasma / IL-8 in plasma / IL-10 in plasma / TNF-α in plasma: LS Means, IV LPS 1 ng/kg
Source text: as §1, §2
(§9) • Leucocyte differential • Cytokines (including IL-6, IL-8, IL-10 and TNF-α) • Flow cytometry (Neutrophils, monocyte subsets, T cells, B cells, NK cells, dendritic cells, including neutrophil extracellular traps) • Explorative biomarkers: acute phase reactants and components measurable in blood, serum and plasma of relevance for septic inflammation may be measured and reported separately.
as §3, §4, §5, §6, §7
Blood is collected at time points as shown in Table 1 below for the assessment of cytokines. Venous blood (4 mL) is collected in K2EDTA tubes. Plasma is collected after centrifugation at 2000×g for 20 minutes at room temperature and stored at −80° C., in 3×0.5 ml aliquots until analysis. Samples are analysed by Ardena Laboratories Assen.
as §8

healthy volunteers [3] = conditions: for Basophil count / Eosinophil count / Lymphocyte count / Monocyte count / Neutrophil count: LS Means, IV LPS 1 ng/kg
Source text: as §1, §2, §9, §3, §4, §5, §6, §7
Blood and other biological samples are collected for the following clinical laboratory tests: Haematology; Chemistry and electrolytes; Glucose; […] (after 4-hours fasting); […] (conjugated bilirubin is reported only when total bilirubin is outside the reference range); Virology; Urinalysis; Pregnancy (for women, serum pregnancy test is performed at screening and urine pregnancy test at other visits when scheduled, and if pregnancy is suspected during the study); Alcohol screening; and Urine drug screening.

[4] = IV LPS, in words, all doses vs placebo
[5] = sevuparin 0.3/0.08 (loading bolus 0.3 mg/kg, then 0.08 mg/kg/h IV)
[6] = sevuparin 1.0/0.25 (loading 1 mg/kg, then 0.25 mg/kg/h IV)
[7] = sevuparin 3.0/0.75 (loading 3 mg/kg, then 0.75 mg/kg/h IV)

sevuparin
respiratory rate compared to placebo (healthy volunteers [1]; FIG. 2, IV LPS, highest intravenously administered dose of sevuparin): improvement of the respiratory rate | therapeutic impact on body temperature (healthy volunteers [1]; [4]): did not have any therapeutic impact | therapeutic impact on diastolic blood pressure (healthy volunteers [1]; [4]): did not have any therapeutic impact | therapeutic impact on feeling sick (healthy volunteers [1]; [4]): did not have any therapeutic impact | therapeutic impact on heart rate (healthy volunteers [1]; [4]): did not have any therapeutic impact | therapeutic impact on systolic blood pressure (healthy volunteers [1]; [4]): did not have any therapeutic impact | Body temperature (healthy volunteers [1]; [5]): 37.13 | Diastolic blood pressure (healthy volunteers [1]; [5]): 63.5 mm Hg | Heart rate (healthy volunteers [1]; [5]): 69.7 bpm | NRS feeling sick (healthy volunteers [1]; [5]): 1.9 | Systolic blood pressure (healthy volunteers [1]; [5]): 115.5 mm Hg | Body temperature (healthy volunteers [1]; [6]): 36.93 | Diastolic blood pressure (healthy volunteers [1]; [6]): 63.9 mm Hg | Heart rate (healthy volunteers [1]; [6]): 71.1 bpm | NRS feeling sick (healthy volunteers [1]; [6]): 1.9 | Systolic blood pressure (healthy volunteers [1]; [6]): 117.3 mm Hg | Body temperature (healthy volunteers [1]; [7]): 36.97 | Diastolic blood pressure (healthy volunteers [1]; [7]): 62.7 mm Hg | Heart rate (healthy volunteers [1]; [7]): 70.5 bpm | NRS feeling sick (healthy volunteers [1]; [7]): 2.0 | Systolic blood pressure (healthy volunteers [1]; [7]): 114.0 mm Hg | therapeutic effect on C-Reactive Protein (CRP) ([2]; IV LPS, in words, vs placebo): no therapeutic effect | therapeutic effect on the inflammatory biomarkers cytokines ([2]; IV LPS, in words, vs placebo): no therapeutic effect | C-Reactive Protein [2, 5]: 10.893 mg/mL | IL-6 in plasma [2, 5]: 19.587 pg/mL | IL-8 in plasma [2, 5]: 19.393 pg/mL | IL-10 in plasma [2, 5]: 8.125 pg/mL | TNF-α in plasma [2, 5]: 5.574 pg/mL | C-Reactive Protein [2, 6]: 11.080 mg/mL | IL-6 in plasma [2, 6]: 16.012 pg/mL | IL-8 in plasma [2, 6]: 19.843 pg/mL | IL-10 in plasma [2, 6]: 11.825 pg/mL | TNF-α in plasma [2, 6]: 5.415 pg/mL | C-Reactive Protein [2, 7]: 11.853 mg/mL | IL-6 in plasma [2, 7]: 13.712 pg/mL | IL-8 in plasma [2, 7]: 17.820 pg/mL | IL-10 in plasma [2, 7]: 7.527 pg/mL | TNF-α in plasma [2, 7]: 5.039 pg/mL | change in basophils compared to placebo control (healthy volunteers [3]; IV LPS, in words): dose dependent pronounced increase | change in neutrophils compared to placebo control (healthy volunteers [3]; IV LPS, in words): dose dependent pronounced increase | change in lymphocytes compared to placebo control (healthy volunteers [3]; IV LPS, in words, FIG. 1): dose dependent pronounced increase | Basophil count (healthy volunteers [3]; [5]): 0.029 E9/L | Eosinophil count (healthy volunteers [3]; [5]): 0.114 E9/L | Lymphocyte count (healthy volunteers [3]; [5]): 1.046 E9/L | Monocyte count (healthy volunteers [3]; [5]): 0.335 E9/L | Neutrophil count (healthy volunteers [3]; [5]): 6.650 E9/L | Basophil count (healthy volunteers [3]; [6]): 0.032 E9/L | Eosinophil count (healthy volunteers [3]; [6]): 0.105 E9/L | Lymphocyte count (healthy volunteers [3]; [6]): 1.136 E9/L | Monocyte count (healthy volunteers [3]; [6]): 0.339 E9/L | Neutrophil count (healthy volunteers [3]; [6]): 5.788 E9/L | Basophil count (healthy volunteers [3]; [7]): 0.039 E9/L | Eosinophil count (healthy volunteers [3]; [7]): 0.117 E9/L | Lymphocyte count (healthy volunteers [3]; [7]): 1.369 E9/L | Monocyte count (healthy volunteers [3]; [7]): 0.376 E9/L | Neutrophil count (healthy volunteers [3]; [7]): 7.073 E9/L
